We go through 13 molecules from patent publication US12479840B2, “HMG-CoA reductase degradation inducing compound” (Uppthera, priority 2020, dated 2025).

For this assay, the target named is T1, HMG-CoA reductase (Homo sapiens, UniProt P04035).
T1 construct: endogenous in cells; host or cells: HepG2 (Korea Cell Line Bank)
T1 sequence (P04035 1-888): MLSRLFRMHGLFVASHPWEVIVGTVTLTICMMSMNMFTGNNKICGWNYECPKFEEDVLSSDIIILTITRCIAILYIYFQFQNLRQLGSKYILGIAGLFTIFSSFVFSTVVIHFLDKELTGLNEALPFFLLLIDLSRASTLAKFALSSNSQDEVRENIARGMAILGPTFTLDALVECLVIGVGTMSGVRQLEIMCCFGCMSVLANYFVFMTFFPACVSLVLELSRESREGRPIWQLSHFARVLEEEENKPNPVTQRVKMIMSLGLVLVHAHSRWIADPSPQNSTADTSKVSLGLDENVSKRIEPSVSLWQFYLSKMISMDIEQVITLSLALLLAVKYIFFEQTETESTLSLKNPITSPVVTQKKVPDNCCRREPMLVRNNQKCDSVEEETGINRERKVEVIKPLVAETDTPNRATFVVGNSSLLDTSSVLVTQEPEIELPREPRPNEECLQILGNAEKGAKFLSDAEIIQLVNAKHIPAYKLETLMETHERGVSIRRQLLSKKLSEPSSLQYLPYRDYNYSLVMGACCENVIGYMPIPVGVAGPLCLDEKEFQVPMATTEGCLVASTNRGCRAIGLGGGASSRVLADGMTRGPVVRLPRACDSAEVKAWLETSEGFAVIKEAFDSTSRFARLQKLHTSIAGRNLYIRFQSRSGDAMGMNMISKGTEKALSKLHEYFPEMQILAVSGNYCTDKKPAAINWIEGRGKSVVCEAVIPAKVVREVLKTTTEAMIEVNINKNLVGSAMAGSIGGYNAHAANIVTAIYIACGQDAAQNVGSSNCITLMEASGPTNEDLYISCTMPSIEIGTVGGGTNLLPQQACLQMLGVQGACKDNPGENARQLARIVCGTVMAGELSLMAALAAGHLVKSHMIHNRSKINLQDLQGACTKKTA
Nature of the assay: HMG-CoA reductase (HMGCR) degradation in HepG2 cells by western blotting. Format: cell-based. The settings on record: treated for 18 hours, ratio of HMG-CoA reductase to GAPDH, read-out: DC50. The essentials: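 HepG2 cells (passage P105–P110) treated 18 hours with compounds in 10-point three-fold dilutions from 3 μM. RIPA lysates (15 μg protein, BCA-quantified) run on SDS-PAGE and immunoblotted for HMGCR (1:500) with GAPDH (1:20000) as loading control, primary antibodies 16 hours at 4° C.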
A general note: Immunoblotting shows a protein as a band on a membrane.
By DC50 is commonly meant the concentration at which degradation of the target reaches its halfway point. Take `C[C@H]1C=C2C=C[C@H](C)[C@H](CC[C@@H]3C[C@@H](O[Si](C)(C)C(C)(C)C)CC(=O)O3)[C@H]2[C@@H](OC(=O)NCCOCCOCCNc2cccc3c2C(=O)N(C2CCC(=O)NC2=O)C3=O)C1` (stereo partly drawn) [Compound 46, (1S,3R,7S,8S,8aR)-8-(2-((2R,4R)-4-((tert-butyldimethylsilyl)oxy)-6-oxotetrahydro-2H-pyran-2-yl)ethyl)-3,7-dimethyl-1,2,3,7,8,8a-hexahydronaphthalen-1-yl (2-(2-(2-((2-(2,6-dioxopiperidin-3-yl)-1,3-dioxoisoindolin-4-yl)amino)ethoxy)ethoxy)ethyl)carbamate]: the DC50 was below 50 nM.

As for `C[C@H]1C=C2C=C[C@H](C)[C@H](CC[C@@H]3C[C@@H](O[Si](C)(C)C(C)(C)C)CC(=O)O3)[C@H]2[C@@H](OC(=O)NCCOCCOCCOCCNc2cccc3c2C(=O)N(C2CCC(=O)NC2=O)C3=O)C1` (stereo partly drawn) [Compound 47, (1S,3R,7S,8S,8aR)-8-(2-((2R,4R)-4-((tert-butyldimethylsilyl)oxy)-6-oxotetrahydro-2H-pyran-2-yl)ethyl)-3,7-dimethyl-1,2,3,7,8,8a-hexahydronaphthalen-1-yl (2-(2-(2-(2-((2-(2,6-dioxopiperidin-3-yl)-1,3-dioxoisoindolin-4-yl)amino)ethoxy)ethoxy)ethoxy)ethyl)carbamate], the DC50 was below 50 nM.

For `C[C@H]1C=C2C=C[C@H](C)[C@H](CC[C@@H]3C[C@@H](O[Si](C)(C)C(C)(C)C)CC(=O)O3)[C@H]2[C@@H](OC(=O)NCCOCCOCCOCCOCCNc2cccc3c2C(=O)N(C2CCC(=O)NC2=O)C3=O)C1` (stereo partly drawn) [Compound 48, (1S,3R,7S,8S,8aR)-8-(2-((2R,4R)-4-((tert-butyldimethylsilyl)oxy)-6-oxotetrahydro-2H-pyran-2-yl)ethyl)-3,7-dimethyl-1,2,3,7,8,8a-hexahydronaphthalen-1-yl (14-((2-(2,6-dioxopiperidin-3-yl)-1,3-dioxoisoindolin-4-yl)amino)-3,6,9,12-tetraoxatetradecyl)carbamate], the DC50 was below 50 nM.

For the molecule `C[C@H]1C=C2C=C[C@H](C)[C@H](CC[C@@H]3C[C@@H](O[Si](C)(C)C(C)(C)C)CC(=O)O3)[C@H]2[C@@H](OC(=O)NCCOCCOCCOCCOCCOCCNc2cccc3c2C(=O)N(C2CCC(=O)NC2=O)C3=O)C1` (stereo partly drawn) [Compound 49, (1S,3R,7S,8S,8aR)-8-(2-((2R,4R)-4-((tert-butyldimethylsilyl)oxy)-6-oxotetrahydro-2H-pyran-2-yl)ethyl)-3,7-dimethyl-1,2,3,7,8,8a-hexahydronaphthalen-1-yl (17-((2-(2,6-dioxopiperidin-3-yl)-1,3-dioxoisoindolin-4-yl)amino)-3,6,9,12,15-pentaoxaheptadecyl)carbamate], the DC50 is below 50 nM.

On to `C[C@H]1C=C2C=C[C@H](C)[C@H](CC[C@@H]3C[C@@H](O[Si](C)(C)C(C)(C)C)CC(=O)O3)[C@H]2[C@@H](OC(=O)NCCOCCOCCOCCOCCOCCOCCNc2cccc3c2C(=O)N(C2CCC(=O)NC2=O)C3=O)C1` (stereo partly drawn) [Compound 50, (1S,3R,7S,8S,8aR)-8-(2-((2R,4R)-4-((tert-butyldimethylsilyl)oxy)-6-oxotetrahydro-2H-pyran-2-yl)ethyl)-3,7-dimethyl-1,2,3,7,8,8a-hexahydronaphthalen-1-yl (20-((2-(2,6-dioxopiperidin-3-yl)-1,3-dioxoisoindolin-4-yl)amino)-3,6,9,12,15,18-hexaoxaicosyl)carbamate], for which the DC50 is below 50 nM.

For `C[C@H]1C=C2C=C[C@H](C)[C@H](CC[C@@H]3C[C@@H](O[Si](C)(C)C(C)(C)C)CC(=O)O3)[C@H]2[C@@H](OC(=O)NCCCCCNc2cccc3c2C(=O)N(C2CCC(=O)NC2=O)C3=O)C1` (stereo partly drawn) [Compound 51, (1S,3R,7S,8S,8aR)-8-(2-((2R,4R)-4-((tert-butyldimethylsilyl)oxy)-6-oxotetrahydro-2H-pyran-2-yl)ethyl)-3,7-dimethyl-1,2,3,7,8,8a-hexahydronaphthalen-1-yl (5-((2-(2,6-dioxopiperidin-3-yl)-1,3-dioxoisoindolin-4-yl)amino)pentyl)carbamate], the DC50 was below 50 nM.

With `C[C@H]1C=C2C=C[C@H](C)[C@H](CC[C@@H]3C[C@@H](O[Si](C)(C)C(C)(C)C)CC(=O)O3)[C@H]2[C@@H](OC(=O)NCCCCCCNc2cccc3c2C(=O)N(C2CCC(=O)NC2=O)C3=O)C1` (stereo partly drawn) [Compound 52, (1S,3R,7S,8S,8aR)-8-(2-((2R,4R)-4-((tert-butyldimethylsilyl)oxy)-6-oxotetrahydro-2H-pyran-2-yl)ethyl)-3,7-dimethyl-1,2,3,7,8,8a-hexahydronaphthalen-1-yl (6-((2-(2,6-dioxopiperidin-3-yl)-1,3-dioxoisoindolin-4-yl)amino)hexyl)carbamate], the DC50 is below 50 nM.

As for `C[C@H]1C=C2C=C[C@H](C)[C@H](CC[C@@H]3C[C@@H](O[Si](C)(C)C(C)(C)C)CC(=O)O3)[C@H]2[C@@H](OC(=O)NCCCCCCCNc2cccc3c2C(=O)N(C2CCC(=O)NC2=O)C3=O)C1` (stereo partly drawn) [Compound 53, (1S,3R,7S,8S,8aR)-8-(2-((2R,4R)-4-((tert-butyldimethylsilyl)oxy)-6-oxotetrahydro-2H-pyran-2-yl)ethyl)-3,7-dimethyl-1,2,3,7,8,8a-hexahydronaphthalen-1-yl (7-((2-(2,6-dioxopiperidin-3-yl)-1,3-dioxoisoindolin-4-yl)amino)heptyl)carbamate], the DC50 was below 50 nM.

In the case of `C[C@H]1C=C2C=C[C@H](C)[C@H](CC[C@@H]3C[C@@H](O[Si](C)(C)C(C)(C)C)CC(=O)O3)[C@H]2[C@@H](OC(=O)NCCCCCCCCNc2cccc3c2C(=O)N(C2CCC(=O)NC2=O)C3=O)C1` (stereo partly drawn) [Compound 54, (1S,3R,7S,8S,8aR)-8-(2-((2R,4R)-4-((tert-butyldimethylsilyl)oxy)-6-oxotetrahydro-2H-pyran-2-yl)ethyl)-3,7-dimethyl-1,2,3,7,8,8a-hexahydronaphthalen-1-yl (8-((2-(2,6-dioxopiperidin-3-yl)-1,3-dioxoisoindolin-4-yl)amino)octyl)carbamate], the DC50 is below 50 nM.

With `C[C@H]1C=C2C=C[C@H](C)[C@H](CC[C@@H]3C[C@@H](O[Si](C)(C)C(C)(C)C)CC(=O)O3)[C@H]2[C@@H](OC(=O)NCCCCCCCCCNc2cccc3c2C(=O)N(C2CCC(=O)NC2=O)C3=O)C1` (stereo partly drawn) [Compound 55, (1S,3R,7S,8S,8aR)-8-(2-((2R,4R)-4-((tert-butyldimethylsilyl)oxy)-6-oxotetrahydro-2H-pyran-2-yl)ethyl)-3,7-dimethyl-1,2,3,7,8,8a-hexahydronaphthalen-1-yl (9-((2-(2,6-dioxopiperidin-3-yl)-1,3-dioxoisoindolin-4-yl)amino)nonyl)carbamate], the DC50 was below 50 nM.

With `C[C@H]1C=C2C=C[C@H](C)[C@H](CC[C@@H]3C[C@@H](O[Si](C)(C)C(C)(C)C)CC(=O)O3)[C@H]2[C@@H](OC(=O)NCCCCCCCCCCNc2cccc3c2C(=O)N(C2CCC(=O)NC2=O)C3=O)C1` (stereo partly drawn) [Compound 56, (1S,3R,7S,8S,8aR)-8-(2-((2R,4R)-4-((tert-butyldimethylsilyl)oxy)-6-oxotetrahydro-2H-pyran-2-yl)ethyl)-3,7-dimethyl-1,2,3,7,8,8a-hexahydronaphthalen-1-yl (10-((2-(2,6-dioxopiperidin-3-yl)-1,3-dioxoisoindolin-4-yl)amino)decyl)carbamate], the DC50 was below 50 nM.

Consider `C[C@H]1C=C2C=C[C@H](C)[C@H](CC[C@@H]3C[C@@H](O[Si](C)(C)C(C)(C)C)CC(=O)O3)[C@H]2[C@@H](OC(=O)NCCCCCCCCCCCNc2cccc3c2C(=O)N(C2CCC(=O)NC2=O)C3=O)C1` (stereo partly drawn) [Compound 57, (1S,3R,7S,8S,8aR)-8-(2-((2R,4R)-4-((tert-butyldimethylsilyl)oxy)-6-oxotetrahydro-2H-pyran-2-yl)ethyl)-3,7-dimethyl-1,2,3,7,8,8a-hexahydronaphthalen-1-yl (11-((2-(2,6-dioxopiperidin-3-yl)-1,3-dioxoisoindolin-4-yl)amino)undecyl)carbamate], for which the DC50 was below 50 nM.

Take `C[C@H]1C=C2C=C[C@H](C)[C@H](CC[C@@H]3C[C@@H](O)CC(=O)O3)[C@H]2[C@@H](OC(=O)NCCCCCNc2cccc3c2C(=O)N(C2CCC(=O)NC2=O)C3=O)C1` (stereo partly drawn) [Compound 58, (1S,3R,7S,8S,8aR)-8-(2-((2R,4R)-4-hydroxy-6-oxotetrahydro-2H-pyran-2-yl)ethyl)-3,7-dimethyl-1,2,3,7,8,8a-hexahydronaphthalen-1-yl (5-((2-(2,6-dioxopiperidin-3-yl)-1,3-dioxoisoindolin-4-yl)amino)pentyl)carbamate]: the DC50 lay within 50 to 500 nM.
